In publication PMC6555543 (PLoS Pathogens, 2019):

What was measured:
[1] = biological target: T1, RVFV CBD (CBD13, RVFV L protein cap-binding domain) (Rift Valley fever virus, UniProt A2SZS3); settings: 25°C, 50 mM Na-phosphate pH 6.5, 150 mM NaCl, 10% glycerol; 9.8 mM GTP in syringe, 194 μM protein
[2] = biological target: T1, RVFV CBD (CBD13, RVFV L protein cap-binding domain); assay: biochemical
[3] = biological target: T1, RVFV CBD (CBD13, RVFV L protein cap-binding domain); settings: 1-10 mM ligand, 15 μM protein, 20 mM Na-phosphate pH 6.5, 100 mM NaCl

T1 sequence (A2SZS3 1706-1822 limits assumed): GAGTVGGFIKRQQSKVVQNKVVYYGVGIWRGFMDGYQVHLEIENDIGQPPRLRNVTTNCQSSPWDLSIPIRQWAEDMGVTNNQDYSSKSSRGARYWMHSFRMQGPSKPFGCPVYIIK

For `Nc1nc2c(ncn2[C@@H]2O[C@H](COP(=O)(O)OP(=O)(O)OP(=O)(O)O)[C@@H](O)[C@H]2O)c(=O)[nH]1` [GTP], the KD [1] was “For GTP the KD is too high to be determined by ITC”.
In the case of `C[n+]1cn([C@@H]2O[C@H](COP(=O)(O)OP(=O)(O)OP(=O)(O)O)[C@@H](O)[C@H]2O)c2nc(N)[nH]c(=O)c21` [m^7GTP], the Kd [2] is reported as about 737 µM.
With `Nc1ncnc2c1ncn2[C@@H]1O[C@H](COP(=O)(O)OP(=O)(O)OP(=O)(O)O)[C@@H](O)[C@H]1O` [ATP] the ΔTm [3] was “no or even negative effects on protein stability after addition of GTP or ATP”.
